# Patent US6300359A, “(E)-3-[1-n-Butyl-5-[2-(2-carboxyphenyl)methoxy-4-chlorophenyl]-1H-pyrazol-4 -yl]-2-[(5-methoxy-2,3-dihydrobenzofuran-6-yl)methyl]-prop-2-enoic acid monoargininyl salt” (SmithKline Beecham Corporation, priority 2000, dated 2001)
# Entries after “also recorded” stand apart in the source; their conditions may differ. Where a name gives a salt, the structure may show the parent alone. Read-outs that look alike come from different tables or passages of the source.
# Legend:
# [1] = Bioavailability study in dogs (oral capsule formulations; intraduodenal non-aqueous solution); type: in vivo, male beagle dogs; settings: for bioavailability: plasma
# [2] = Enterohepatic extraction ratio and theoretical maximum oral bioavailability; type: in vivo; settings: dogs
# [3] = Aqueous solubility under acidic conditions; type: physicochemical; settings: water, pH<5.34
# Experimental: The aqueous solubility of the diacid of the compound of Formula (I) is very limited under acidic conditions. The solubility is less than 0.1 ug/mL at pH<5.34.
# [4] = Hygroscopicity study (moisture uptake, dynamic vapor sorption analyzer); type: physicochemical; settings: for % Moisture Uptake: percentage weight gain
# Excerpt: ^a Measured on a dynamic vapor sorption analyzer as percentage weight
# [5] = Accelerated stability studies; type: physicochemical; settings: stored at 50° C.
smiles,measurement,setting,value
"CCCCn1ncc(/C=C(\Cc2cc3c(cc2OC)CCO3)C(=O)O)c1-c1ccc(Cl)cc1OCc1ccccc1C(=O)O [Diacid, (E)-3-[1-n-Butyl-5-[2-(2-carboxyphenyl)methoxy-4-chlorophenyl]-1H-pyrazol-4-yl]-2-[(5-methoxy-2,3-dihydrobenzofuran-6-yl)methyl]-prop-2-enoic acid]",bioavailability,"[1]; dog, po, 10 mg/kg, dogs, oral dosing of a simple capsule formulation, read-out: oral bioavailability",3.9%
same,bioavailability,"[1]; dog, po, dog, oral capsule with 0.5% Tween 80 & 2 MEq NMG (also some microcrystalline cellulose, lactose, starch), read-out: Mean % Oral Bioavailability ± SD",6.3 ± 5.3%
same,bioavailability,"[1]; dog, po, dog, oral capsule with 0.5% Tween 80 (also some microcrystalline cellulose, lactose, starch), read-out: Mean % Oral Bioavailability ± SD",2.3 ± 3.7%
same,hepatic extraction ratio,"[2]; dog, in vivo",0.82
same,theoretical maximum value of oral bioavailability,[2]; from enterohepatic extraction ratio,18%
same,solubility,[3],< 0.1 µg/mL
same,% Moisture Uptake,[4]; 0% relative humidity,0%
same,% Moisture Uptake,[4]; 10% relative humidity,0.077%
same,% Moisture Uptake,[4]; 20% relative humidity,0.088%
same,% Moisture Uptake,[4]; 30% relative humidity,0.126%
same,% Moisture Uptake,[4]; 40% relative humidity,0.184%
same,% Moisture Uptake,[4]; 50% relative humidity,0.245%
same,% Moisture Uptake,[4]; 60% relative humidity,0.316%
same,% Moisture Uptake,[4]; 70% relative humidity,0.395%
same,% Moisture Uptake,[4]; 80% relative humidity,0.509%
same,% Moisture Uptake,[4]; 90% relative humidity,0.518%
CCCCn1ncc(/C=C(\Cc2cc3c(cc2OC)CCO3)C(=O)O)c1-c1ccc(Cl)cc1OCc1ccccc1C(=O)O [Disodium Salt],bioavailability,"[1]; dog, dog, non-aqueous solution (99% PEG 400, 1% DMSO) dosed intraduodenally, only 2 animals, read-out: Mean % Oral Bioavailability ± SD",14.5%
same,bioavailability,"[1]; dog, po, dog, oral capsule (with microcrystalline cellulose as diluent), read-out: Mean % Oral Bioavailability ± SD",6.2%
same,% Moisture Uptake,[4]; 0% relative humidity,0%
same,% Moisture Uptake,[4]; 10% relative humidity,1.849%
same,% Moisture Uptake,[4]; 20% relative humidity,2.838%
same,% Moisture Uptake,[4]; 30% relative humidity,3.821%
same,% Moisture Uptake,[4]; 40% relative humidity,5.013%
same,% Moisture Uptake,[4]; 50% relative humidity,6.773%
same,% Moisture Uptake,[4]; 60% relative humidity,10.188%
same,% Moisture Uptake,[4]; 70% relative humidity,15.919%
same,% Moisture Uptake,[4]; 80% relative humidity,22.472%
same,% Moisture Uptake,[4]; 90% relative humidity,33.671%
"CCCCn1ncc(/C=C(\Cc2cc3c(cc2OC)CCO3)C(=O)O)c1-c1ccc(Cl)cc1OCc1ccccc1C(=O)O [Monoargininyl Salt, (E)-3-[1-n-Butyl-5-[2-(2-carboxyphenyl)methoxy-4-chlorophenyl]1H-pyrazol-4-yl]-2-[(5-methoxy-2,3-dihydrobenzofuran-6-yl)methyl]-prop-2-enoic Acid, Monoargininyl Salt]",Mean % Oral Bioavailability ± SD,"[1]; dog, oral capsule (with microcrystalline cellulose as diluent), 10 mg/kg",13.8 ± 7.6%
same,bioavailability compared with other forms (in words),"[1]; dogs, vs disodium salt or dissolution-enhancing formulations of the diacid",increased bioavailability as compared to the disodium salt or dissolution-enhancing formulations of the diacid
same,% Moisture Uptake,[4]; 0% relative humidity,0%
same,% Moisture Uptake,"[4]; 10% relative humidity, listed as Monoarginine",0.261%
same,% Moisture Uptake,"[4]; 20% relative humidity, listed as Monoarginine",0.382%
same,% Moisture Uptake,"[4]; 30% relative humidity, listed as Monoarginine",0.526%
same,% Moisture Uptake,"[4]; 40% relative humidity, listed as Monoarginine",0.689%
same,% Moisture Uptake,"[4]; 50% relative humidity, listed as Monoarginine",0.827%
same,% Moisture Uptake,"[4]; 60% relative humidity, listed as Monoarginine",0.982%
same,% Moisture Uptake,"[4]; 70% relative humidity, listed as Monoarginine",1.092%
same,% Moisture Uptake,"[4]; 80% relative humidity, listed as Monoarginine",1.434%
same,% Moisture Uptake,"[4]; 90% relative humidity, listed as Monoarginine",2.334%
same,hygroscopicity (in words),"[4]; compared with diacid and amorphous disodium salt, listed as monoarginine salt",minimally hygroscopic; also recorded: slightly more hygroscopic than the diacid form; also recorded: considerably less hygroscopic than the amorphous disodium salt form
same,moisture absorbed,[4]; relative humidity range of 0 to 90%,2.3%
same,chemical stability,[5],chemically stable for at least three weeks
